# Non-standard residues stand in square brackets, D forms with d. Residues, ends and D or L forms follow the SMILES beside them.
# Experiments:
# pancreatic lipase = target: T1, pancreatic lipase (Sus scrofa, UniProt P00591); assay: Fluorescence anisotropy specificity test; assay type: binding; settings: fluorescently labeled DPMD; Figure S3E
# T1 construct: purchased Macklin
# T1 sequence (P00591 1-450): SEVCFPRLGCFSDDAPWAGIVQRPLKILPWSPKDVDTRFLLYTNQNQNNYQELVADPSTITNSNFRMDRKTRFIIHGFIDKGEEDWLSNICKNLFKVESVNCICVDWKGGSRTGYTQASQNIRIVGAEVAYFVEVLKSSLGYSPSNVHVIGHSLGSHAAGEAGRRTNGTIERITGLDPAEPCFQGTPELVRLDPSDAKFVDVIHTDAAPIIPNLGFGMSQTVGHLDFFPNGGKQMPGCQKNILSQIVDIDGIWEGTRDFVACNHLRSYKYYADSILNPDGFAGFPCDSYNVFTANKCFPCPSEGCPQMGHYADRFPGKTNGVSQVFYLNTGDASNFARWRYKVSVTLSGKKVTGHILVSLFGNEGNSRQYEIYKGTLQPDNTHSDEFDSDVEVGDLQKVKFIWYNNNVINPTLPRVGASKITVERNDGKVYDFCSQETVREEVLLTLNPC
# Experimental: (§1) To validate the design, DPMD was synthesized using solid‐phase synthesis employing HOBt/HBTU and Fmoc chemistry, following a sequence schematic diagram depicted in Figure 1A. Subsequently, a single reverse column purification by High‐performance liquid chromatography (HPLC) yielded DPMD with purity exceeding 95% at a yield surpassing 60% (Figure S1B, Supporting Information). Circular dichroism (CD) spectra were recorded for a 40 µM DPMD sample in an aqueous solution containing 20% TFE at room temperature. The use of 20% TFE was necessary to obtain a clear spectrum, as it enhances peptide solubility and stabilizes secondary structure.^[ [9] ^] […] To further confirm that DPMD's enzymatic targeting is specific and not a broad‐spectrum protein aggregation effect, we tested DPMD against other pancreatic enzymes and abundant plasma proteins. Fluorescently labeled DPMD was mixed with elastase, pancreatic lipase, α‐amylase, carboxypeptidase A, bovine serum albumin (BSA), and IgG, respectively, and fluorescence anisotropy was measured to detect binding. […] For example, anisotropy values for DPMD + elastase (or lipase, amylase, etc.) remained near the baseline (DPMD‐alone) level, whereas DPMD + trypsin produced a pronounced anisotropy elevation (reflecting peptide‐enzyme complex formation and microaggregate assembly).
# (§2) Figure S3. […]
# (§3) (D-H) The fluorescent anisotropy
# (§4) evaluation of binding affinity between DPMD peptide with elastase (D), lipase (E), amylase(F), carboxypeptidase
# (§5) (G), albumin (H) and immunoglobulins (I). […]
# elastase = target: T2, elastase (Sus scrofa, UniProt P00772); assay: Fluorescence anisotropy specificity test; assay type: binding; settings: fluorescently labeled DPMD; Figure S3D
# T2 construct: purchased Sangon
# T2 sequence (P00772 27-266): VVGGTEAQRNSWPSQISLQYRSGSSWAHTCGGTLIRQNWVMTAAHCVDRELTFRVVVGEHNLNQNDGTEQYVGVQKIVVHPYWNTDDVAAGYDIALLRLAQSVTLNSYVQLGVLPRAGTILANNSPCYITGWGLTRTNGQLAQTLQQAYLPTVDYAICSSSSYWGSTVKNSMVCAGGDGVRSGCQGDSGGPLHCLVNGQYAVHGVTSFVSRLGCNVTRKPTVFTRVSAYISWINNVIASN
# Experimental: as §1, §2, §3, §4, §5
# α-amylase = assay: Fluorescence anisotropy specificity test; assay type: binding; settings: fluorescently labeled DPMD; Figure S3F
# Experimental: as §1, §2, §3, §4, §5
# IgG = assay: Fluorescence anisotropy specificity test; assay type: binding; settings: fluorescently labeled DPMD; Figure S3I
# Experimental: as §1, §2, §3, §4, §5
# carboxypeptidase A = assay: Fluorescence anisotropy specificity test; assay type: binding; settings: fluorescently labeled DPMD; Figure S3G
# Experimental: as §1, §2, §3, §4, §5
# [1] = target: T3, bovine serum albumin (BSA) (Bos taurus, UniProt P02769); assay: Fluorescence anisotropy specificity test; assay type: binding; settings: fluorescently labeled DPMD; Figure S3H
# T3 construct: purchased Psaitong Biotechnology
# T3 sequence (P02769 25-607): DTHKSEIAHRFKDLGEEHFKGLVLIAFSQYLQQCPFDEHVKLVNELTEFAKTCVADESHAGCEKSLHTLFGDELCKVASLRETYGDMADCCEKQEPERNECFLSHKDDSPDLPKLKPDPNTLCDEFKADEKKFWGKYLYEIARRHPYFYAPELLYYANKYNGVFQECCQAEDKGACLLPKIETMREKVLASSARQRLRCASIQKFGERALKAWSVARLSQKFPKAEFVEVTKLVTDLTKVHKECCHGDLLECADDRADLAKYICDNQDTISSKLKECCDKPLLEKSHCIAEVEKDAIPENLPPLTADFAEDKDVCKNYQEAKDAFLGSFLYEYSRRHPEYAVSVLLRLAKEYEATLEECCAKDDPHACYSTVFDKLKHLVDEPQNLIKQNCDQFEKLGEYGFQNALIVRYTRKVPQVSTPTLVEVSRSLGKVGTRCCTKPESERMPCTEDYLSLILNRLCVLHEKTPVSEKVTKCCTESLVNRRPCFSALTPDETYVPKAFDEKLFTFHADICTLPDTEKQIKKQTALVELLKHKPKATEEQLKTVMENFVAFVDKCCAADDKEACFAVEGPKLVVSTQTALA
# Experimental: as §1, §2, §3, §4, §5
# Proteinase K = target: T4, Proteinase K (Parengyodontium album, UniProt P06873); assay: Fluorescence anisotropy binding, non-target protease; settings: Figure S3A
# T4 construct: purchased Sigma-Aldrich
# T4 sequence (P06873 106-384): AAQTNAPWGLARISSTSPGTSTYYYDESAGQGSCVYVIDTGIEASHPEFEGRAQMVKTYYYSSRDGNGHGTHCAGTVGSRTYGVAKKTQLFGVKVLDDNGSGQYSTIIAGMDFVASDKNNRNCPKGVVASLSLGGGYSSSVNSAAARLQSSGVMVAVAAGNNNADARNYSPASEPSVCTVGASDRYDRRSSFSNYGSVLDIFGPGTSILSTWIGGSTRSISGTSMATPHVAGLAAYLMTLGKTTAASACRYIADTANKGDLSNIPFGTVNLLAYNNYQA
# Text: Figure S3. The fluorescent anisotropy evaluation of binding affinity between DPMD peptide with Proteinase K (A), and inhibitor-saturated and blocked trypsin (B) and chymotrypsin (C). Trypsin/Chymotrypsin was saturated and blocked by aprotinin (Yeasen Biotechnology, trypsin/chymotrypsin inhibitor). (D-H) The fluorescent anisotropy evaluation of binding affinity between DPMD peptide with elastase (D), lipase (E), amylase(F), carboxypeptidase (G), albumin (H) and immunoglobulins (I).
# Figure S4. The DLS analysis of trypsin, chymotrypsin and DPMD with/without trypsin or chymotrypsin. […]
# data acquisition. A series of enzyme solutions with varying concentrations (maximum concentrations of trypsin and chymotrypsin were 20 μM each) were prepared in Tris-HCl buffer (10 mM Tris, 150 mM NaCl, 1 mM EDTA, pH 7.0). These enzyme solutions were added to the 96-well plate and incubated with 100 nM DPMD at room temperature for 30 minutes, with triplicates.
# Fluorescence polarization was measured with an excitation wavelength of 470 nm and an emission […]
# Plot the fluorescence intensity versus concentration data as scatter plots using Origin software.
# For data analysis, fit the concentration-fluorescence polarization data with the logistic function in Origin 2021 software to obtain the fitting curve and determine the half-maximal effective concentration (EC50). […]
# HUVEC = assay type: cell-based; settings: 48 h
# Experimental: and the product's absorbance at […] was dynamically and real-time monitored using a microplate […]
# During the chymotrypsin activity assay, DPMD was incorporated into chymotrypsin. The final concentration of chymotrypsin was set at 10 μg/mL, and the final concentration of DPMD was 5 mg/mL. In the corresponding control group, an equal volume of the buffer solution prepared by the kit was added. Subsequently, the enzyme-peptide mixture was added to the reaction system containing the substrate N-Benzoyl-L-Tyrosine Ethyl Ester (BTEE) at a ratio of 1:100 (where the proportion of the enzyme-peptide mixture solution was 1) for the detection of enzyme activity. The reaction was carried out at 25 ℃, and the product's absorbance at 256 nm was dynamically and real-time monitored using a microplate reader. The experimental result was represented by the enzyme reaction's degree of completion. All the tests were repeated three independent times.
# NIH-3T3 cells were obtained from the National Collection of Authenticated Cell Cultures. HUVECs were obtained from Procell. All cells were maintained in DMEM media at 37°C with 5% CO₂. […] Cell viability was evaluated by the CCK-8 assay (Dojindo) at 1-, 3-, 5-, and 7-days post-treatment. […] The absorbance at 450 nm was recorded using a microplate reader […]
structure (smiles),measurement,setting,value
"CC[C@@H](C)[C@@H](NC(=O)[C@@H](CCC(N)=O)NC(=O)[C@H](NC(=O)[C@@H](Cc1ccc(O)cc1)NC(=O)CNC(=O)[C@@H](CC(C)C)NC(=O)[C@H](NC(=O)[C@@H](CO)NC(=O)CNC(=O)[C@@H](C)NC(=O)[C@@H](CC(=O)O)NC(=O)[C@@H](C)NC(=O)[C@@H](CCCNC(=N)N)NC(=O)[C@@H](C)NC(=O)[C@@H](CC(=O)O)NC(=O)[C@@H](C)NC(=O)[C@@H](CCCNC(=N)N)NC(=O)[C@@H](C)NC(=O)[C@@H](CC(=O)O)NC(=O)[C@@H](C)NC(=O)[C@@H](CCCNC(=N)N)NC(=O)[C@@H](C)NC(=O)[C@@H](CC(=O)O)NC(=O)[C@@H](C)NC(=O)[C@H](N)CCCNC(=N)N)C(C)C)[C@H](C)CC)C(=O)N[C@H](CCCNC(=N)N)C(=O)O [DPMD, Ac‐(D‐RADA)4‐CONH2] (H-[dR][dA][dD][dA][dR][dA][dD][dA][dR][dA][dD][dA][dR][dA][dD][dA]G[dS][dV][dL]G[dY][dI][dQ][dI][dR]-OH; N-terminus and C-terminus assumed)",anisotropy increase with pancreatic lipase,pancreatic lipase,no significant anisotropy increase
same,anisotropy increase with elastase,elastase,no significant anisotropy increase
same,anisotropy increase with α-amylase,α-amylase,no significant anisotropy increase
same,anisotropy increase with IgG,IgG,no significant anisotropy increase
same,anisotropy increase with carboxypeptidase A,carboxypeptidase A,no significant anisotropy increase
same,anisotropy increase with BSA,[1],no significant anisotropy increase
same,binding to Proteinase K (fluorescence anisotropy),Proteinase K,no appreciable binding
same,cell viability,HUVEC,> 90%
